Experiments:
human factor XIa = biological target: T1, human factor XIa (Homo sapiens, UniProt P03951); assay: Factor XIa Assay; format: biochemical; conditions: human factor XIa 0.04 nM, substrate GPR-AFC, 25° C.
T1 construct: with human (0.04 nM) factor XIa
Experimental: (§1) The effectiveness of a compound of the present invention as an inhibitor of Coagulation factor XIa can be determined using a relevant purified serine protease, and an appropriate synthetic substrate. The rate of hydrolysis of the chromogenic or fluorogenic substrate by the relevant serine protease was measured both in the absence and presence of compounds of the present invention. Assays were conducted at rt or at 37° C. […] A decrease in the rate of fluorescence change in the presence of inhibitor is indicative of enzyme inhibition. Such methods are known to one skilled in the art. The results of this assay are expressed as the half-maximal inhibitory concentrations (IC50), or the inhibitory constant, Ki.
Compounds were pre-incubated for 30 min at 25° C. with human (0.04 nM) factor XIa in 50 mM HEPES buffer with 150 mM sodium chloride, 5 mM calcium chloride, 0.1% PEG 8000, pH 7.4. factor XIa enzymatic activity was determined by addition of the substrate glycine-proline-arginine-7-amido-4-trifluoromethylcoumarin (GPR-AFC) and measurement of the fluorescence at 400/505 nm after a 60 min incubation at 25° C. The % inhibition for each data point was calculated from the data and analyzed using the log (inhibitor) vs. response four parameters equation to determine the half-maximal inhibitory concentrations (IC50). The IC50 were converted to equilibrium inhibitory constants (Ki) using the Cheng-Prusoff equation.

Human plasma kallikrein = biological target: T2, Human plasma kallikrein (Homo sapiens, UniProt P03952); assay: Plasma Kallikrein Assay; format: biochemical; conditions: purified Human plasma kallikrein 0.5 nM, substrate Acetyl-K-P-R-AFC; read-out: PKal IC50
T2 construct: yields a heavy chain (371 amino acids) and a light chain (248 amino acids); purchased Enzyme Research Laboratories
T2 sequence (P03952 391-638 limits assumed): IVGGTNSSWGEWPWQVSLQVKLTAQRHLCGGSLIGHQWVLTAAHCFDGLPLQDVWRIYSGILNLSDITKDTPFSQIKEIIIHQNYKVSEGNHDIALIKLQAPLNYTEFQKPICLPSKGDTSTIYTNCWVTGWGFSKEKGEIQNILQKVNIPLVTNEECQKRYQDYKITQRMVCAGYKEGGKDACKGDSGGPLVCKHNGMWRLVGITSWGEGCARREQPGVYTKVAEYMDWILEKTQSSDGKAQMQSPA
T2 sequence (P03952 20-390 partner limits assumed): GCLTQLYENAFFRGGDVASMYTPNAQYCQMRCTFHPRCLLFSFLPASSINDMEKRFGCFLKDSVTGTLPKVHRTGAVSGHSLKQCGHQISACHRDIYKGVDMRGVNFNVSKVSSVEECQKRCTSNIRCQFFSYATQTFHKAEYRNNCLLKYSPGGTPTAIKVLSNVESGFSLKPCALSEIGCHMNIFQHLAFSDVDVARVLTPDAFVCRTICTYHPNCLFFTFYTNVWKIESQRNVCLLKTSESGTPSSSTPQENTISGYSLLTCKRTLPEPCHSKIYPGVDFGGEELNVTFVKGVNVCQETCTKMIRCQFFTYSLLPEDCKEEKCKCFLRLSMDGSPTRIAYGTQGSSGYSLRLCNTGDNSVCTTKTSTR
Experimental: as §1, with “plasma kallikrein” for “Coagulation factor XIa”
Plasma kallikrein determinations were made in 50 mM HEPES buffer at pH 7.4 containing 150 mM NaCl, 5 mM CaCl2), and 0.1% PEG 8000 (polyethylene glycol; Fisher Scientific). Determinations were made using purified Human plasma kallikrein at a final concentration of 0.5 nM (Enzyme Research Laboratories) and the synthetic substrate, Acetyl-K-P-R-AFC (Sigma #C6608) at a concentration of […].
Times required to achieve equilibration between enzyme and inhibitor were determined in control experiments. […] IC50 was determined by inflection point from a four parameter logistic curve fit. Ki was calculated using the Cheng Prusoff equation, Ki=IC50/(1+([S]/Km)).

T1 sequence (P03951 388-625 limits assumed): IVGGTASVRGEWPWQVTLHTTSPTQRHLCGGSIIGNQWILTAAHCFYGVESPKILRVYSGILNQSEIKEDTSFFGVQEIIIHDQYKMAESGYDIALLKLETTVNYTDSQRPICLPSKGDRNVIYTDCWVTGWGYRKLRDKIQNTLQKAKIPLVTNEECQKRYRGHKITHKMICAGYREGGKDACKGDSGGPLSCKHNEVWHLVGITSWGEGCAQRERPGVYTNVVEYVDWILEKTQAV
T1 sequence (P03951 19-387 partner limits assumed): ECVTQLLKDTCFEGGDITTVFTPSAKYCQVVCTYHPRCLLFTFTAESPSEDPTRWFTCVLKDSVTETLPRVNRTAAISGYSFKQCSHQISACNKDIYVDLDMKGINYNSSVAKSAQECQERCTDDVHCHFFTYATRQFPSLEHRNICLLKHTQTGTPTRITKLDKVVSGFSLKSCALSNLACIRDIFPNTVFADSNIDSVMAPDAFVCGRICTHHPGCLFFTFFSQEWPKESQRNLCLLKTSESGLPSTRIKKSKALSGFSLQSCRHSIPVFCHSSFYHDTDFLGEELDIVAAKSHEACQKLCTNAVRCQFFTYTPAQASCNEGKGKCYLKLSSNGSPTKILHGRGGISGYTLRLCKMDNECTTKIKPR

`CC[C@H](c1ccc(F)cc1)c1nnc(C(=O)N2CCC[C@@]3(C2)OC(=O)Nc2ccc(Cl)c(F)c23)[nH]1` (single isomer, unassigned) [Example 85] was tested, and the IC50 (human factor XIa) was 3110 nM and the IC50 (Human plasma kallikrein) was 16.7 nM.

For `CC[C@@H](c1cc(C)c2nc[nH]c2c1)c1n[nH]c(C(=O)N2CCC[C@@]3(C2)OC(=O)Nc2ccc(Cl)c(F)c23)n1` [Example 109, (R)-6-Chloro-5-fluoro-1′-(3-((S)-1-(4-methyl-1H-benzo[d]imidazol-6-yl)propyl)-TH-1,2,4-triazole-5-carbonyl)spiro[benzo[d][1,3]oxazine-4,3′-piperidin]-2(1H)-one], the IC50 (human factor XIa) was 646 nM and the IC50 (Human plasma kallikrein) was 1.3 nM.

With `COCC(c1ccccc1)n1cc(C(=O)N2CCC[C@@]3(C2)OC(=O)Nc2ccc(Cl)c(F)c23)cn1` (stereo partly drawn) [Example 14, (4R)-6-Chloro-5-fluoro-1′-(1-(2-methoxy-1-phenylethyl)-1H-pyrazole-4-carbonyl)spiro[benzo[d][1,3]oxazine-4,3′-piperidin]-2(1H)-one] the IC50 (human factor XIa) was 1530 nM and the IC50 (Human plasma kallikrein) was 16.2 nM.

`CCC(c1ccc2c(c1)COC2)c1nnc(C(=O)N2CCC[C@@]3(C2)OC(=O)Nc2ccc(Cl)c(F)c23)[nH]1` (single isomer, unassigned) [Example 112] showed an IC50 (human factor XIa) of 1560 nM and an IC50 (Human plasma kallikrein) of 1 nM.

`CCC(c1ccc2c(c1)COC2)c1nnc(C(=O)N2CCC[C@@]3(C2)OC(=O)Nc2ccc(Cl)c(F)c23)[nH]1` (single isomer, unassigned) [Example 111] was tested, and the IC50 (human factor XIa) was 2820 nM and the IC50 (Human plasma kallikrein) was 3.8 nM.

For `CCC(c1ccc2c(c1)OCO2)n1cc(C(=O)N2CCC[C@@]3(C2)OC(=O)Nc2ccc(Cl)c(F)c23)cn1` (single isomer, unassigned) [Example 32], the IC50 (human factor XIa) was 1790 nM and the IC50 (Human plasma kallikrein) was 4.6 nM.

`CC1(C)CN(C(=O)c2nnc(C(C)(C)c3ccccc3)[nH]2)C[C@]2(C1)OC(=O)Nc1ccc(Cl)c(F)c12` [Example 95, (R)-6-Chloro-5-fluoro-5′,5′-dimethyl-1′-(5-(2-phenylpropan-2-yl)-4H-1,2,4-triazole-3-carbonyl)spiro[benzo[d][1,3]oxazine-4,3′-piperidin]-2(1H)-one] gave an IC50 (human factor XIa) of 3010 nM and an IC50 (Human plasma kallikrein) of 21.4 nM.

`CCC(c1ccc(F)cc1)n1cc(C(=O)N2CCC[C@@]3(C2)OC(=O)Nc2ccc(Cl)c(F)c23)cn1` (single isomer, unassigned) [Example 26] was tested, and the IC50 (human factor XIa) was 7640 nM and the IC50 (Human plasma kallikrein) was 6.9 nM.

`CCC(c1ccnc(C(F)(F)F)c1)c1c[nH]c(C(=O)N2CCC[C@@]3(C2)OC(=O)Nc2ccc(Cl)c(F)c23)n1` (single isomer, unassigned) [Example 74, (R)-6-Chloro-5-fluoro-1′-(4-((S or R)-1-(2-(trifluoromethyl)pyridin-4-yl)propyl)-1H-imidazole-2-carbonyl)spiro[benzo[d][1,3]oxazine-4,3′-piperidin]-2(1H)-one] was tested, and the IC50 (human factor XIa) was 2750 nM and the IC50 (Human plasma kallikrein) was 10.8 nM.

In the case of `O=C1Nc2ccc(Cl)c(F)c2[C@@]2(CCCN(C(=O)c3cnn(Cc4cccc(C5CC5)c4)c3)C2)O1` [Example 10, (R)-6-Chloro-1′-(1-(3-cyclopropylbenzyl)-1H-pyrazole-4-carbonyl)-5-fluorospiro[benzo[d][1,3]oxazine-4,3′-piperidin]-2(1H)-one], the IC50 (Human plasma kallikrein) is reported as 26.8 nM.

Compound `Cc1cccc(Cc2n[nH]c(C(=O)N3CCC[C@@]4(C3)OC(=O)Nc3ccc(Cl)c(F)c34)n2)c1` [Example 113, (R)-6-Chloro-1′-(3-(3-methylbenzyl)-1H-1,2,4-triazole-5-carbonyl)-5-fluorospiro[benzo[d][1,3]oxazine-4,3′-piperidin]-2(1H)-one] has an IC50 (Human plasma kallikrein) of 18.3 nM.

For `Cc1cnn(Cc2ccc(Cn3cc(C(=O)N4CC[C@]5(C4)OC(=O)Nc4ccc(Cl)c(F)c45)cn3)cc2)c1` [Example 134, (S)-6-Chloro-5-fluoro-1′-(1-(4-((4-methyl-1H-pyrazol-1-yl)methyl)benzyl)-1H-pyrazole-4-carbonyl)spiro[benzo[d][1,3]oxazine-4,3′-pyrrolidin]-2(1H)-one], the IC50 (Human plasma kallikrein) was 20.8 nM.

`CN1CCOc2cc(Cn3cc(C(=O)N4CCC[C@@]5(C4)OC(=O)Nc4ccc(Cl)c(F)c45)cn3)ccc21` [Example 51, (R)-6-Chloro-5-fluoro-1′-(1-((4-methyl-3,4-dihydro-2H-benzo[b][1,4]oxazin-7-yl)methyl)-1H-pyrazole-4-carbonyl)spiro[benzo[d][1,3]oxazine-4,3′-piperidin]-2(1H)-one] was tested, and the IC50 (Human plasma kallikrein) was 35.1 nM.

Compound `CC1(C)CN(C(=O)c2cnn(Cc3ccccc3)c2)C[C@]2(C1)OC(=O)Nc1ccc(Cl)c(F)c12` [Example 21, (R)-1′-(1-Benzyl-1H-pyrazole-4-carbonyl)-6-chloro-5-fluoro-5′,5′-dimethylspiro[benzo[d][1,3]oxazine-4,3′-piperidin]-2(1H)-one] has an IC50 (Human plasma kallikrein) of 12.1 nM.

`O=C1Nc2ccc(Cl)c(F)c2[C@@]2(CCCN(C(=O)c3nnc(Cc4ccccc4F)[nH]3)C2)O1` [Example 114, (R)-6-Chloro-5-fluoro-1′-(5-(2-fluorobenzyl)-4H-1,2,4-triazole-3-carbonyl)spiro[benzo[d][1,3]oxazine-4,3′-piperidin]-2(1H)-one] gave an IC50 (Human plasma kallikrein) of 33.1 nM.

`CC(c1ccccc1)n1cc(C(=O)N2CCC[C@@]3(C2)OC(=O)Nc2ccc(Cl)c(F)c23)cn1` (single isomer, unassigned) [Example 23] was tested, and the IC50 (Human plasma kallikrein) was 46 nM.

With `O=C1Nc2ccc(Cl)c(F)c2[C@@]2(CCCN(C(=O)c3nnc(Cc4cc(F)cc(F)c4)[nH]3)C2)O1` [Example 120, (R)-6-Chloro-1′-(5-(3,5-difluorobenzyl)-4H-1,2,4-triazole-3-carbonyl)-5-fluorospiro[benzo[d][1,3]oxazine-4,3′-piperidin]-2(1H)-one] the IC50 (Human plasma kallikrein) was 21.1 nM.

`O=C1Nc2ccc(Cl)c(F)c2[C@@]2(CCCN(C(=O)c3cnn(Cc4ccc5c(c4)COCC5)c3)C2)O1` [Example 56, (R)-6-Chloro-5-fluoro-1′-(1-(isochroman-7-ylmethyl)-1H-pyrazole-4-carbonyl)spiro[benzo[d][1,3]oxazine-4,3′-piperidin]-2(1H)-one] showed an IC50 (Human plasma kallikrein) of 10.9 nM.

`O=C1Nc2ccc(Cl)c(F)c2[C@@]2(CCCN(C(=O)c3cnn(Cc4ccc(F)c(F)c4)c3)C2)O1` [Example 4, (R)-6-Chloro-1′-(1-(3,4-difluorobenzyl)-1H-pyrazole-4-carbonyl)-5-fluorospiro[benzo[d][1,3]oxazine-4,3′-piperidin]-2(1H)-one] was tested, and the IC50 (Human plasma kallikrein) was 20 nM.

`C[C@@H](c1cccc(Cl)c1)n1cc(C(=O)N2CCC[C@@]3(C2)OC(=O)Nc2ccc(Cl)c(F)c23)cn1` [Example 27, (R)-6-Chloro-1′-(1-((S)-1-(3-chlorophenyl)ethyl)-1H-pyrazole-4-carbonyl)-5-fluorospiro[benzo[d][1,3]oxazine-4,3′-piperidin]-2(1H)-one] was tested, and the IC50 (Human plasma kallikrein) was 10.9 nM.

For `O=C1Nc2ccc(Cl)c(F)c2[C@]2(CCN(C(=O)C3(F)CCN(Cc4ccc(Cn5ccccc5=O)cc4)CC3)C2)O1` [Example 138, (4S)-6-Chloro-5-fluoro-1′-(4-fluoro-1-(4-((2-oxopyridin-1(2H)-yl)methyl)benzyl)piperidine-4-carbonyl)spiro[benzo[d][1,3]oxazine-4,3′-pyrrolidin]-2(1H)-one], the IC50 (Human plasma kallikrein) was 5.6 nM.

`O=C1Nc2ccc(Cl)c(F)c2[C@@]2(CCCN(C(=O)c3nnc(Cc4ccc5c(c4)OCO5)[nH]3)C2)O1` [Example 119, (R)-1′-(5-(Benzo[d][1,3]dioxol-5-ylmethyl)-4H-1,2,4-triazole-3-carbonyl)-6-chloro-5-fluorospiro[benzo[d][1,3]oxazine-4,3′-piperidin]-2(1H)-one] showed an IC50 (Human plasma kallikrein) of 47.1 nM.

Work on `O=C1Nc2ccc(Cl)c(F)c2[C@@]2(CCCN(C(=O)c3cnn(Cc4ccccc4)c3)C2)O1` [Example 3, (R)-1′-(1-Benzyl-1H-pyrazole-4-carbonyl)-6-chloro-5-fluorospiro[benzo[d][1,3]oxazine-4,3′-piperidin]-2(1H)-one] yielded an IC50 (human factor XIa) of 1380 nM.

For `Cc1ccc(Cc2nnc(C(=O)N3CCC[C@@]4(C3)OC(=O)Nc3ccc(Cl)c(F)c34)[nH]2)cc1C` [Example 126, (R)-6-Chloro-1′-(5-(3,4-dimethylbenzyl)-4H-1,2,4-triazole-3-carbonyl)-5-fluorospiro[benzo[d][1,3]oxazine-4,3′-piperidin]-2(1H)-one], the IC50 (Human plasma kallikrein) was 33.1 nM.
